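How tested: cells in 96-well plates exposed to compound for 48 hours at five concentrations. TGI marks complete inhibition of growth.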
Columns and labels:
Assay in all cases: NCI-60 cell line screen, 48 h
SW-620 colon = test system: SW-620 colon
SK-OV-3 ovarian = test system: SK-OV-3 ovarian
OVCAR-3 ovarian = test system: OVCAR-3 ovarian
RPMI-8226 leukemia = test system: RPMI-8226 leukemia
MCF7 breast = test system: MCF7 breast
MDA-MB-231 breast = test system: MDA-MB-231 breast
NCI/ADR-RES ovarian = test system: NCI/ADR-RES ovarian
HL-60(TB) leukemia = test system: HL-60(TB) leukemia
IGROV1 ovarian = test system: IGROV1 ovarian
NCI-H460 lung = test system: NCI-H460 lung
HOP-92 NSCLC = test system: HOP-92 NSCLC
OVCAR-8 ovarian = test system: OVCAR-8 ovarian
SK-MEL-2 melanoma = test system: SK-MEL-2 melanoma
BT-549 breast = test system: BT-549 breast
UACC-62 melanoma = test system: UACC-62 melanoma
OVCAR-4 ovarian = test system: OVCAR-4 ovarian
M14 melanoma = test system: M14 melanoma
NCI-H226 lung = test system: NCI-H226 lung
SR leukemia = test system: SR leukemia
SN12C renal = test system: SN12C renal

Structure (SMILES) | TGI (SW-620 colon) [µM] | TGI (SK-OV-3 ovarian) [µM] | TGI (OVCAR-3 ovarian) [µM] | TGI (RPMI-8226 leukemia) [µM] | TGI (MCF7 breast) [µM] | TGI (MDA-MB-231 breast) [µM] | TGI (NCI/ADR-RES ovarian) [µM] | TGI (HL-60(TB) leukemia) [µM] | TGI (IGROV1 ovarian) [µM] | TGI (NCI-H460 lung) [µM] | TGI (HOP-92 NSCLC) [µM] | TGI (OVCAR-8 ovarian) [µM] | TGI (SK-MEL-2 melanoma) [µM] | TGI (BT-549 breast) [µM] | TGI (UACC-62 melanoma) [µM] | TGI (OVCAR-4 ovarian) [µM] | TGI (M14 melanoma) [µM] | TGI (NCI-H226 lung) [µM] | TGI (SR leukemia) [µM] | TGI (SN12C renal) [µM]
O=C1/C(=C/c2cccc([N+](=O)[O-])c2)N=C(c2ccccc2)N1c1ccc2c(c1)Sc1cc(N3C(=O)/C(=C/c4cccc([N+](=O)[O-])c4)N=C3c3ccccc3)ccc1N2 | > 100 | 30.9 | 28.4 | > 100 | 37.9 | 89.8 | > 100 | 64.6 | 45.3 | > 100 | 85.2 | 78.8 | 39.9 | 52.4 | 31.7 | 34.5 | 87.9 |  |  | 
COC1=CC(=O)C2[C@H]3Cc4ccccc4[C@H]3C2(C)C1=O (stereo not given in full) | > 100 | > 100 | > 100 | > 100 |  |  |  |  | > 100 | > 100 | > 100 | > 100 | > 100 |  | > 100 | > 100 | > 100 | > 100 | > 100 | 
O=C(CN1C(=O)c2ccccc2C1=O)OCC1CCCN2CCCCC12 (stereo not given) | > 100 | > 100 |  | > 100 | > 100 | > 100 | > 100 | > 100 |  | > 100 | > 100 | > 100 | > 100 | > 100 | > 100 | > 100 |  | > 100 |  | > 100
O=C1CSc2ccncc2N1 | > 100 |  | > 100 |  |  |  |  | > 100 | > 100 | > 100 |  | > 100 | > 100 |  | > 100 | > 100 | > 100 | > 100 | > 100 | > 100
CC1=NN(c2ccccc2)C(=O)C1C(=O)C(=O)Nc1ccc(C)cc1C (stereo not given) | > 100 | > 100 | > 100 | > 100 | > 100 |  | > 100 | > 100 | > 100 | > 100 | > 100 | > 100 | > 100 |  | > 100 | > 100 | > 100 | > 100 | > 100 | > 100
CC(C)C(/C=C/c1ccc(Cl)cc1)=N\NC(=S)NN | > 100 | > 100 | 78 | > 100 | 52.5 | > 100 | 48.1 | 30.7 | > 100 | 41.8 |  | > 100 | 44.5 | > 100 | 30.5 |  | > 100 | 93 |  | > 100
CC(C)(C)OC(=O)N1C(=O)OC[C@@H]2C=C[C@@H]21 | > 100 | > 100 | > 100 | > 100 | > 100 | > 100 | > 100 | > 100 | > 100 | > 100 | > 100 | > 100 | > 100 | > 100 | > 100 | > 100 | > 100 |  |  | > 100
C/C(=C\[C@H]1C[C@@H]([C@@H]2CC[C@]34C[C@]23C=C[C@@H]2[C@@]3(C)CC=C5C[C@@H](c6ccccc6)OC[C@]5(C)[C@@H]3C[C@@H](O)[C@]24C)C(=O)O1)CO | > 100 | > 61.8 | > 100 | > 96.4 | > 100 | 54.4 | > 100 |  | 20.5 |  | 28.1 | > 100 | > 100 | 98.6 | > 71.2 | > 62.7 | > 100 | > 94.2 |  | 5.57
CCNC(=O)Cc1nc2c(=O)[nH]cnc2n1C1OC(CO)C(O)C1O (stereo not given) | > 100 | > 100 | > 100 | > 100 | > 100 | > 100 | > 100 | > 100 | > 100 | > 100 | > 100 | > 100 | > 100 | > 100 | > 100 | > 100 | > 100 | > 100 |  | > 100
CO/N=C/c1c(-c2ccc(Cl)cc2)c(/C=N/OC)n2c1sc1ccccc12 | > 100 | > 100 | > 100 |  | > 100 | > 100 | > 100 | > 100 | > 100 | > 100 | > 100 | > 100 | > 100 | > 100 | > 100 | > 100 |  |  |  | > 100
N.N.N.N.O=S(=O)([O-])[O-].[Co+3].[OH3+].[OH3+] | > 100 | > 100 | > 100 | > 100 |  |  |  | > 100 | > 100 | > 100 | > 100 | > 100 | > 100 |  | > 100 | > 100 | > 100 |  |  | > 100
O=C1c2cccnc2-c2nccc3ccnc1c23 | 1.78 | 2.9 | 1.49 | 0.894 | 1.7 | 6.52 |  | 0.185 | 2.12 | 12.8 | 2.36 | 2.17 | 4.64 | 2.78 | 1.88 | 5.46 | 2.43 | 2.98 |  | 2.36
CCC1CCN=C(Cn2cc(C)c(=O)[nH]c2=O)N1 (stereo not given) | > 100 | > 100 |  |  | > 100 | > 100 | > 100 |  | > 100 | > 100 | > 100 | > 100 | > 100 | > 100 | > 100 |  | > 100 | > 100 |  | > 100
CN(C)C1COC2Cc3ccccc3C1O2 (stereo not given) | > 100 | > 100 | > 100 | > 100 | > 100 | > 100 | > 100 | > 100 | > 100 | > 100 | > 100 | > 100 | > 100 |  | > 100 | > 100 | > 100 | > 100 | > 100 | > 100
O=C1NCN(c2ccccc2)C12CCN(CCCSc1ccc(F)cc1)CC2 | > 100 | > 100 | > 100 | > 100 | > 39.9 | 25.2 | > 100 | > 63.6 | 51.3 | > 100 | 41.6 | > 100 | 43.3 |  | > 69 | > 96.6 | 21.7 | > 88 | > 81.7 | > 100
O=C(O)CCCC#CCCCC(=O)O |  | > 100 | > 100 |  | > 100 |  | > 100 |  | > 100 | > 100 | > 100 | > 100 | > 100 |  | > 100 | > 100 | > 100 |  | > 100 | > 100
Cc1cc2nc3c(C#N)c(-c4ccccc4)cc(Nc4cccc(C(F)(F)F)c4)n3c2cc1C | 20.7 | 44 | 8.41 | > 100 | 22.5 | 16.2 | 20.2 |  |  | 11.5 |  | > 100 | 12.7 | > 100 |  | 50.5 | 60.3 | 26.5 |  | 25.2
CC(C)[C@H](NC(=O)[C@@H](O)[C@H](N)Cc1ccccc1)C(=O)N[C@@H](Cc1ccccc1)C(=O)O | > 100 | > 100 | > 100 | > 100 | > 100 | > 100 | > 100 | > 100 | > 100 | > 100 | > 100 | > 100 | > 100 |  | > 100 | > 100 | > 100 | > 100 | > 100 | > 100
CCCN1CN(C(C(=O)N[C@@H]2C(=O)N3C(C(=O)O)=C(C)CSC23)c2ccccc2)CSC1=S (stereo not given in full) |  | > 100 | > 100 | > 100 |  |  |  | > 100 | > 100 | > 100 | > 100 | > 100 | > 100 |  | > 100 | > 100 | > 100 |  |  | > 100
Cc1c(C)c(C)c(CSC(=N)N)c(C)c1C | 29 | 34.2 | 32.1 | 38.9 | 30.9 | 27.1 | 30.6 | 27.6 | > 100 | 26.8 | 30.9 | 58.2 | 27.8 | 30.7 | 24.2 | 33.2 | 22.7 | 27.8 |  | 32.3
CC1OC2OC3C(OCC(O)C3O)OC(=O)[C@]34CCC(C)(C)CC3C3=CCC5[C@@]6(C)C[C@H](O)[C@H](OC7OC(CO)C(O)C(O)C7OC7OC(COC(=O)CC(C)(O)CC(=O)OC1C(O)C2O)C(O)C(O)C7O)[C@@](C)(CO)C6CC[C@@]5(C)[C@]3(C)CC4 (stereo not given in full) | 2.44 | 2.79 | 3.15 |  | 15.2 | 3.11 | 11.9 | 2.87 | 2.54 | 4.45 | 2.94 | 3.1 | 2.85 | 2.82 | 2.81 | 3.15 | 2.76 | 5.19 |  | 4.37
Cc1cc(-c2ccc(Cl)cc2)c(C#N)c(=S)n1C1OC(CO)C(O)C(O)C1O (stereo not given) | > 100 | > 100 | > 100 |  | > 100 | > 100 | > 100 | > 100 | > 100 | > 100 |  | > 100 | > 100 |  | > 100 | > 100 | > 100 | > 100 | > 100 | > 100
Clc1cccc(Cl)c1C1SCc2nc3ncccc3n21 (stereo not given) | > 100 | > 100 | > 100 | > 100 |  | > 100 | > 100 | > 100 | > 100 | > 100 |  | > 100 | > 100 |  | > 100 | > 100 | > 100 | > 100 | > 100 | > 100
[O-][n+]1onc2c1-c1nonc1CC2 | > 100 | > 100 | 43.8 | > 100 | > 100 | 69.2 | > 100 | 96.2 | > 100 | > 100 |  | > 100 | 65.2 |  | > 100 | 74.1 | 89.8 | 76.3 | > 100 | > 100
CCOC(=O)c1cc(C2(OC)CCN(Cc3ccccc3)C2=O)c(-c2cc(C)no2)[nH]1 (stereo not given) | > 100 | > 100 | > 100 | > 100 | > 100 | > 100 | > 100 |  | > 100 | > 100 | > 100 | > 100 | > 100 | > 100 | > 100 | > 100 | > 100 |  |  | 
COc1ccc(C2S/C(=C\c3cccc([N+](=O)[O-])c3)C(=O)N2NC(=O)Cc2ccccc2)cc1 (stereo not given) | > 100 | > 100 |  | > 100 |  |  |  | > 100 | > 100 | > 100 | > 100 | > 100 | > 100 |  | > 100 | > 100 | > 100 | > 100 | > 100 | > 100
Cn1c(C2CC(C)(C)c3c2c2ccccc2n3C)cc2ccccc21 (stereo not given) | > 304 | > 304 | > 304 | > 304 |  |  |  | > 304 | > 304 | > 304 | > 304 | > 304 | > 304 |  | > 304 |  |  | > 304 | > 304 | > 304

From PubChem BioAssay (NCI)
